Test results taken from ChEMBL document CHEMBL3872213, “Synthesis and biological activity of furoxan derivatives against Mycobacterium tuberculosis” (Eur J Med Chem, 2016).
≈ marks a conversion by molar mass, not a printed value.

Columns and labels:
[1] = Induction of nitric oxide production assessed as nitrite level at 10^-4M measured after 1 hr in presence 1:50 molar excess of L-cysteine by Griess reagent based spectrophotometer relative to control; assay type: physicochemical; settings: 100 µM
[2] = Cytotoxicity against mouse J774A.1 cells measured after 24 hrs by resazurin based fluorescence method; assay type: toxicity, J774.A1
[3] = in vitro; settings: mouse, J774A.1 cells
Description: Selectivity index, ratio of IC50 for mouse J774A.1 cells to MIC90 for Mycobacterium tuberculosis H37Rv ATCC 27294

[4] = system: Mycobacterium tuberculosis; assay: microbe, parasite or virus in culture; settings: H37Rv ATCC 27294, 168 h
Description: Antitubercular activity against Mycobacterium tuberculosis H37Rv ATCC 27294 after 7 days by REMA method

[5] = system: Mycobacterium tuberculosis; assay type: functional; settings: H37Rv ATCC 27294, 144 h
[6] = n-octanol-water partition coefficient, log P of the compound by HPLC method; assay type: physicochemical
[7] = system: Mycobacterium tuberculosis; assay type: functional; settings: H37Rv
[8] = system: Mycobacterium tuberculosis; assay type: functional; settings: H37Rv ATCC 27294, 168 h
[9] = Cytotoxicity against human MRC5 cells measured after 24 hrs by resazurin based fluorescence method; assay type: toxicity, cell-based
[10] = Chemical stability in pH 1 PBS buffer assessed as compound degradation after 1 hr by HPLC-MS/MS method; assay type: physicochemical; settings: read-out: Drug degradation
[11] = Chemical stability in pH 9 PBS buffer assessed as compound degradation after 1 hr by HPLC-MS/MS method; assay type: physicochemical; settings: read-out: Drug degradation
[12] = Chemical stability in pH 5 PBS buffer after 6 hrs by HPLC-MS/MS method; assay type: physicochemical; settings: pH 5, 6 h
[13] = Chemical stability in pH 7.4 PBS buffer assessed as compound degradation after 6 hrs by HPLC-MS/MS method; assay type: physicochemical; settings: read-out: Drug degradation
[14] = Chemical stability in pH 5 PBS buffer assessed as compound degradation after 24 hrs by HPLC-MS/MS method; assay type: physicochemical; settings: read-out: Drug degradation
[15] = Chemical stability in pH 7.4 PBS buffer assessed as compound degradation after 24 hrs by HPLC-MS/MS method; assay type: physicochemical; settings: read-out: Drug degradation
[16] = in vitro; settings: human, MRC5 cells
Description: Selectivity index, ratio of IC50 for human MRC5 cells to MIC90 for Mycobacterium tuberculosis H37Rv ATCC 27294

[17] = system: Mycobacterium tuberculosis; assay type: functional; settings: H37Rv ATCC 27294, 168 h; remark: listed apart in the source

Compound	Activity [1]	MIC90 [4] [µM]	other results
O=[N+]([O-])O[C@H]1CO[C@H]2[C@@H]1OC[C@H]2O[N+](=O)[O-] [ISOSORBIDE DINITRATE]	7.17 to 7.5 mol/mol		
O=Cc1cccc(Oc2no[n+]([O-])c2S(=O)(=O)c2ccccc2)c1	27.1%	20.9 (≈ 7.23 µg/mL)	IC50 at 24 h [2]: 5.6 µM; selectivity ratio [3]: 2
Cc1c(Oc2ccc(C=O)cc2)no[n+]1[O-]	0%	> 62	
O=Cc1ccc(Oc2no[n+]([O-])c2-c2ccccc2)cc1	19.4%	> 62	
CC(C)COC(=O)c1cnccn1			MIC90 [5]: 2 µM (≈ 0.36 µg/mL)
CCCCN(CCCC)C(=S)NC(=O)c1ccccc1		25 (≈ 7.31 µg/mL)	
O=Cc1cccc(Oc2no[n+]([O-])c2-c2ccccc2)c1	23.1%	> 62	
O=Cc1ccc(Oc2no[n+]([O-])c2S(=O)(=O)c2ccccc2)cc1	24.4%	26 (≈ 9.01 µg/mL)	IC50 at 24 h [2]: 2.2 µM; selectivity ratio [3]: 0.1
O=Cc1ccccc1Oc1no[n+]([O-])c1-c1ccccc1	25.1%	> 62	
COc1cc(/C=N/c2ccc(O)cc2)cc(OC)c1OC		15.6 (≈ 4.48 µg/mL)	
O=C(N/N=C/c1ccccc1Oc1no[n+]([O-])c1-c1ccccc1)c1ccncc1	11.2%	> 62	logP [6]: 2.7
NC(=O)c1cnccn1 [PYRAZINAMIDE]			MIC90 [7]: > 48 µM
O=C(N/N=C/c1ccc(Oc2no[n+]([O-])c2S(=O)(=O)c2ccccc2)cc1)c1ccncc1	43.5%	1.03 (≈ 0.479 µg/mL)	MIC90 [8]: > 62 µM; IC50 at 24 h [9]: 43 µM; IC50 at 24 h [2]: 10.8 µM; logP [6]: 2.1; degraded at 1 h [10]: 90%; degraded at 1 h [11]: 50%; Stability [12]: Stable; degraded at 6 h [13]: 15%; degraded at 24 h [14]: 20%; degraded at 24 h [15]: 20%; selectivity ratio [3]: 12; selectivity ratio [16]: 20.3
O=C(N/N=C/c1ccc(O)cc1)c1ccncc1		1.04 (≈ 0.251 µg/mL)	MIC90 [7]: 1 µM (≈ 0.241 µg/mL)
CCN(CC)C(=S)NC(=O)c1ccco1		25 (≈ 5.66 µg/mL)	
NC(=O)c1c(CBr)no[n+]1[O-]		3 (≈ 0.666 µg/mL)	
Cc1c(Oc2cccc(C=O)c2)no[n+]1[O-]	0%	> 62	
NNC(=O)c1ccncc1 [ISONIAZID]	0%	0.11 (≈ 0.0151 µg/mL)	
Cc1c(Oc2cccc(/C=N/NC(=O)c3ccncc3)c2)no[n+]1[O-]	0.16%	> 62	logP [6]: 1.3
Cc1c(Oc2ccccc2C=O)no[n+]1[O-]	0%	> 62	
c1csc(-c2nc3ccccc3s2)c1		50 (≈ 10.9 µg/mL)	
O=C(N/N=C/c1ccccc1O)c1ccncc1 [SALINAZID]		12.4 (≈ 3 µg/mL)	
O=C(CC(=O)C(F)(F)F)c1ccccc1		9.61 (≈ 2.08 µg/mL)	

Compound	Activity [1]	MIC90 [4] [µM]	other results
O=S(=O)(c1ccccc1)c1no[n+]([O-])c1-c1ccccc1		82 (≈ 24.8 µg/mL)	
N[C@@H]1CONC1=O [CYCLOSERINE]			MIC90 [7]: 245 µM (≈ 25 µg/mL)
C/C(=N\NC(N)=S)c1ccccn1			MIC90 [17]: 31.3 µM (≈ 6.08 µg/mL)
Cc1c(Oc2ccccc2/C=N/NC(=O)c2ccncc2)no[n+]1[O-]	0.35%	> 62	logP [6]: 1.4
O=Cc1ccccc1Oc1no[n+]([O-])c1S(=O)(=O)c1ccccc1	21.2%	20.2 (≈ 7.01 µg/mL)	IC50 at 24 h [2]: 7.4 µM; selectivity ratio [3]: 0.4
O=C(NC(=S)N(c1ccccc1)c1ccccc1)c1ccccc1		25 (≈ 8.31 µg/mL)	
O=[N+]([O-])c1ccc(/C=N/c2ccc(O)cc2)cc1		15.6 (≈ 3.78 µg/mL)	
NC[C@H]1O[C@H](O[C@H]2[C@H](O)[C@@H](O[C@H]3O[C@H](CO)[C@@H](O)[C@H](N)[C@H]3O)[C@H](N)C[C@@H]2N)[C@H](O)[C@@H](O)[C@@H]1O [KANAMYCIN]			MIC90 [7]: 3.4 µM (≈ 1.65 µg/mL)
CNC(=S)N/N=C(\C)c1ccccn1			MIC90 [17]: 7.8 µM (≈ 1.62 µg/mL)
COc1ccc(/C=N/CC/N=C/c2ccc(OC)cc2)cc1		25 (≈ 7.41 µg/mL)	
O=S(=O)(c1ccccc1)c1no[n+]([O-])c1S(=O)(=O)c1ccccc1		6.2 (≈ 2.27 µg/mL)	
O=C(N/N=C/c1cccc(O)c1)c1ccncc1		104 (≈ 25 µg/mL)	
O=C(N/N=C/c1cccc(Oc2no[n+]([O-])c2S(=O)(=O)c2ccccc2)c1)c1ccncc1	38.5%	1.61 (≈ 0.749 µg/mL)	MIC90 [8]: > 62 µM; IC50 at 24 h [9]: 30.1 µM; IC50 at 24 h [2]: 4.3 µM; logP [6]: 2.3; selectivity ratio [3]: 3; selectivity ratio [16]: 14.1
CN(C)C(=S)NC(=O)c1ccccc1		25 (≈ 5.21 µg/mL)	
Cc1c(Oc2ccc(/C=N/NC(=O)c3ccncc3)cc2)no[n+]1[O-]	2.02%	> 62	logP [6]: 1.3
CO[C@H]1/C=C/O[C@@]2(C)Oc3c(C)c(O)c4c(O)c(c(/C=N/N5CCN(C)CC5)c(O)c4c3C2=O)NC(=O)/C(C)=C\C=C\[C@H](C)[C@H](O)[C@@H](C)[C@@H](O)[C@@H](C)[C@H](OC(C)=O)[C@@H]1C [RIFAMPIN]	0%	0.5 (≈ 0.411 µg/mL)	
O=C(N/N=C/c1cccc(Oc2no[n+]([O-])c2-c2ccccc2)c1)c1ccncc1	6.87%	> 62	logP [6]: 2.9
O=C(N/N=C/c1ccc(Oc2no[n+]([O-])c2-c2ccccc2)cc1)c1ccncc1	7.33%	11.8 (≈ 4.74 µg/mL)	MIC90 [8]: > 62 µM; IC50 at 24 h [9]: 623 µM; IC50 at 24 h [2]: 409 µM; logP [6]: 2.9; selectivity ratio [3]: 34.8; selectivity ratio [16]: 52.7
C/C(=N\NC(=S)Nc1ccccc1)c1ccccn1			MIC90 [17]: 15.6 µM (≈ 4.22 µg/mL)
CN(C)c1ccc(/C=N/c2ccc(O)cc2)cc1		15.6 (≈ 3.75 µg/mL)	
O=C(N/N=C/c1ccccc1Oc1no[n+]([O-])c1S(=O)(=O)c1ccccc1)c1ccncc1	44.2%	8.6 (≈ 4 µg/mL)	MIC90 [8]: > 62 µM; IC50 at 24 h [9]: 34.4 µM; IC50 at 24 h [2]: 10.8 µM; logP [6]: 2.2; selectivity ratio [3]: 1.25; selectivity ratio [16]: 3.78
O=C(CC(=O)C(F)(F)F)c1cccs1		10.9 (≈ 2.42 µg/mL)	
